Assay results from the NIST ThermoML archive (doi:10.1016/j.jct.2005.05.003).
± gives the expanded uncertainty stated by the source.

Assay: mn = molality of the nth substance listed, in mol/kg
Conditions: Liquid, Vibrating tube method

[Ca+2].[Cl-].[Cl-] [calcium chloride] + CO
mass density (348.24 K, 14994 kPa, m1 = 0.1082): 766.79 ± 0.53 kg/m3 | mass density (348.24 K, 14997 kPa, m1 = 0.6588): 815.48 ± 0.54 kg/m3 | mass density (348.24 K, 15007 kPa, m1 = 0.2853): 782.23 ± 0.53 kg/m3 | mass density (348.24 K, 19987 kPa, m1 = 0.6588): 820.39 ± 0.55 kg/m3 | mass density (348.24 K, 19991 kPa, m1 = 0.2853): 787.34 ± 0.55 kg/m3 | mass density (348.24 K, 20008 kPa, m1 = 0.1082): 772.12 ± 0.55 kg/m3 | mass density (348.24 K, 24982 kPa, m1 = 0.1082): 777.11 ± 0.57 kg/m3 | mass density (348.24 K, 24994 kPa, m1 = 0.6588): 825.04 ± 0.56 kg/m3 | mass density (348.24 K, 24997 kPa, m1 = 0.2853): 792.2 ± 0.57 kg/m3 | mass density (348.24 K, 29990 kPa, m1 = 0.1082): 781.87 ± 0.59 kg/m3 | mass density (348.24 K, 29991 kPa, m1 = 0.2853): 796.8 ± 0.58 kg/m3 | mass density (348.24 K, 29992 kPa, m1 = 0.6588): 829.46 ± 0.58 kg/m3 | mass density (348.24 K, 34986 kPa, m1 = 0.2853): 801.19 ± 0.6 kg/m3 | mass density (348.24 K, 34998 kPa, m1 = 0.6588): 833.71 ± 0.59 kg/m3 | mass density (348.24 K, 35025 kPa, m1 = 0.1082): 786.39 ± 0.61 kg/m3 | mass density (348.24 K, 39992 kPa, m1 = 0.1082): 790.73 ± 0.63 kg/m3 | mass density (348.24 K, 40048 kPa, m1 = 0.6588): 837.76 ± 0.61 kg/m3 | mass density (348.24 K, 40055 kPa, m1 = 0.2853): 805.38 ± 0.63 kg/m3 | mass density (373.24 K, 517 kPa, m1 = 2.393): 904.38 ± 0.55 kg/m3 | mass density (373.24 K, 4985 kPa, m1 = 2.393): 909.14 ± 0.56 kg/m3 | mass density (373.24 K, 10000 kPa, m1 = 2.393): 914.19 ± 0.56 kg/m3 | mass density (373.24 K, 14988 kPa, m1 = 2.393): 918.95 ± 0.57 kg/m3 | mass density (373.24 K, 20003 kPa, m1 = 2.393): 923.48 ± 0.57 kg/m3 | mass density (373.24 K, 25015 kPa, m1 = 2.393): 927.81 ± 0.58 kg/m3 | mass density (373.24 K, 29988 kPa, m1 = 2.393): 931.93 ± 0.58 kg/m3 | mass density (373.24 K, 35016 kPa, m1 = 2.393): 935.94 ± 0.59 kg/m3 | mass density (373.24 K, 40000 kPa, m1 = 2.393): 939.74 ± 0.59 kg/m3 | mass density (373.26 K, 523 kPa, m1 = 0.2853): 738.51 ± 0.47 kg/m3 | mass density (373.26 K, 527 kPa, m1 = 0.1082): 722.32 ± 0.47 kg/m3 | mass density (373.26 K, 534 kPa, m1 = 0.6588): 773.01 ± 0.49 kg/m3 | mass density (373.26 K, 4997 kPa, m1 = 0.2853): 745.17 ± 0.49 kg/m3 | mass density (373.26 K, 4999 kPa, m1 = 0.1082): 729.31 ± 0.48 kg/m3 | mass density (373.26 K, 5013 kPa, m1 = 0.6588): 779.26 ± 0.5 kg/m3 | mass density (373.26 K, 9996 kPa, m1 = 0.2853): 752.01 ± 0.51 kg/m3 | mass density (373.26 K, 10000 kPa, m1 = 0.6588): 785.66 ± 0.52 kg/m3 | mass density (373.26 K, 10001 kPa, m1 = 0.1082): 736.45 ± 0.5 kg/m3 | mass density (373.26 K, 14984 kPa, m1 = 0.2853): 758.3 ± 0.53 kg/m3 | mass density (373.26 K, 14986 kPa, m1 = 0.6588): 791.62 ± 0.53 kg/m3 | mass density (373.26 K, 15009 kPa, m1 = 0.1082): 743.03 ± 0.53 kg/m3 | mass density (373.26 K, 19980 kPa, m1 = 0.2853): 764.17 ± 0.55 kg/m3 | mass density (373.26 K, 19981 kPa, m1 = 0.1082): 749.09 ± 0.55 kg/m3 | mass density (373.26 K, 20010 kPa, m1 = 0.6588): 797.23 ± 0.55 kg/m3 | mass density (373.26 K, 24999 kPa, m1 = 0.2853): 769.7 ± 0.57 kg/m3 | mass density (373.26 K, 25000 kPa, m1 = 0.6588): 802.48 ± 0.57 kg/m3 | mass density (373.26 K, 25016 kPa, m1 = 0.1082): 754.83 ± 0.57 kg/m3 | mass density (373.26 K, 29995 kPa, m1 = 0.1082): 760.17 ± 0.6 kg/m3 | mass density (373.26 K, 29996 kPa, m1 = 0.6588): 807.45 ± 0.58 kg/m3 | mass density (373.26 K, 30000 kPa, m1 = 0.2853): 774.89 ± 0.59 kg/m3 | mass density (373.26 K, 34993 kPa, m1 = 0.2853): 779.79 ± 0.62 kg/m3 | mass density (373.26 K, 35000 kPa, m1 = 0.6588): 812.19 ± 0.6 kg/m3 | mass density (373.26 K, 35003 kPa, m1 = 0.1082): 765.25 ± 0.62 kg/m3 | mass density (373.26 K, 40001 kPa, m1 = 0.6588): 816.69 ± 0.62 kg/m3 | mass density (373.26 K, 40004 kPa, m1 = 0.2853): 784.46 ± 0.64 kg/m3 | mass density (373.26 K, 40011 kPa, m1 = 0.1082): 770.07 ± 0.65 kg/m3 | mass density (398.25 K, 888 kPa, m1 = 2.393): 878.49 ± 0.54 kg/m3 | mass density (398.25 K, 5007 kPa, m1 = 2.393): 883.68 ± 0.55 kg/m3 | mass density (398.25 K, 10016 kPa, m1 = 2.393): 889.54 ± 0.55 kg/m3 | mass density (398.25 K, 14986 kPa, m1 = 2.393): 895.06 ± 0.56 kg/m3 | mass density (398.25 K, 19983 kPa, m1 = 2.393): 900.25 ± 0.57 kg/m3 | mass density (398.25 K, 24997 kPa, m1 = 2.393): 905.15 ± 0.57 kg/m3 | mass density (398.25 K, 29989 kPa, m1 = 2.393): 909.82 ± 0.58 kg/m3 | mass density (398.25 K, 34996 kPa, m1 = 2.393): 914.29 ± 0.59 kg/m3 | mass density (398.25 K, 40014 kPa, m1 = 2.393): 918.56 ± 0.59 kg/m3 | mass density (398.27 K, 880 kPa, m1 = 0.6588): 744.38 ± 0.48 kg/m3 | mass density (398.27 K, 899 kPa, m1 = 0.2853): 709.27 ± 0.46 kg/m3 | mass density (398.27 K, 901 kPa, m1 = 0.1082): 692.84 ± 0.45 kg/m3 | mass density (398.27 K, 4987 kPa, m1 = 0.6588): 751.36 ± 0.49 kg/m3 | mass density (398.27 K, 4995 kPa, m1 = 0.2853): 716.79 ± 0.48 kg/m3 | mass density (398.27 K, 4999 kPa, m1 = 0.1082): 700.78 ± 0.47 kg/m3 | mass density (398.27 K, 9984 kPa, m1 = 0.2853): 725.04 ± 0.5 kg/m3 | mass density (398.27 K, 9997 kPa, m1 = 0.6588): 759.11 ± 0.51 kg/m3 | mass density (398.27 K, 10005 kPa, m1 = 0.1082): 709.46 ± 0.5 kg/m3 | mass density (398.27 K, 14988 kPa, m1 = 0.2853): 732.54 ± 0.53 kg/m3 | mass density (398.27 K, 15011 kPa, m1 = 0.1082): 717.28 ± 0.52 kg/m3 | mass density (398.27 K, 15012 kPa, m1 = 0.6588): 766.18 ± 0.53 kg/m3 | mass density (398.27 K, 19999 kPa, m1 = 0.2853): 739.43 ± 0.55 kg/m3 | mass density (398.27 K, 20003 kPa, m1 = 0.1082): 724.41 ± 0.55 kg/m3 | mass density (398.27 K, 20013 kPa, m1 = 0.6588): 772.68 ± 0.55 kg/m3 | mass density (398.27 K, 24989 kPa, m1 = 0.2853): 745.78 ± 0.58 kg/m3 | mass density (398.27 K, 25000 kPa, m1 = 0.6588): 778.71 ± 0.57 kg/m3 | mass density (398.27 K, 25003 kPa, m1 = 0.1082): 730.99 ± 0.58 kg/m3 | mass density (398.27 K, 29985 kPa, m1 = 0.6588): 784.37 ± 0.59 kg/m3 | mass density (398.27 K, 30002 kPa, m1 = 0.2853): 751.73 ± 0.6 kg/m3 | mass density (398.27 K, 30013 kPa, m1 = 0.1082): 737.16 ± 0.61 kg/m3 | mass density (398.27 K, 34982 kPa, m1 = 0.1082): 742.86 ± 0.64 kg/m3 | mass density (398.27 K, 34983 kPa, m1 = 0.2853): 757.27 ± 0.63 kg/m3 | mass density (398.27 K, 35012 kPa, m1 = 0.6588): 789.76 ± 0.61 kg/m3 | mass density (398.27 K, 39992 kPa, m1 = 0.2853): 762.54 ± 0.66 kg/m3 | mass density (398.27 K, 39995 kPa, m1 = 0.1082): 748.29 ± 0.67 kg/m3 | mass density (398.27 K, 39999 kPa, m1 = 0.6588): 794.79 ± 0.64 kg/m3
